Experiments:
[1] = biological target: EIF2AK3 (PERK) catalytic domain (amino acids 536-1116) (Homo sapiens (Human), UniProt Q9NZJ5); assay: PERK in vitro activity assay (isolated), TR-FRET kinase assay; conditions: isolated PERK enzyme, 1.5 μM ATP, GFP-eIF2a substrate; read-out: Biochemical IC50
Source text: PERK In Vitro Activity Assay (Isolated):
In vitro Inhibition of PERK Enzyme Activity (isolated) Recombinant human EIF2AK2 (PKR) catalytic domain (amino acids 252-551), EIF2AK3 (PERK) catalytic domain (amino acids 536-1116), GFP-eIF2a substrate, and Terbium-labelled phospho-eIF2a antibody is obtained (Invitrogen, Carlsbad, CA).
Express and purify HIS-SUMO-GCN2 catalytic domain (amino acids 584-1019) from E. coli. Perform TR-FRET kinase assays in the absence or presence of inhibitors in a reaction buffer consisting of 50 mM HEPES, pH 7.5, 10 mM MgCb, 1.0 mM EGTA, and 0.01% Brij-35, and 100-200 nM GFP-eIF2a substrate. […] Add test compound, initiate the reaction by addition of enzyme, and incubate at room temperature for 45 minutes. Stop the reaction by addition of EDTA to a final concentration of 10 mM, add Terbium-labelled phospho-eIF2a antibody at a final concentration of 2 nM, and incubate for 90 minutes. Monitor the resulting fluorescence in an EnVison® Multilabel reader (PerkinElmer, Waltham, MA). Determine TR-FRET ratios and the resulting IC50 values using a 4-parameter nonlinear logistic equation as shown: Y=(A+((B−A)/(1+((C/x)[…])))) where, Y=% specific inhibition, A=Bottom of the curve, B=Top of the curve, C=absolute IC50 (concentration causing 50% inhibition), and D=hill slope.

PERK = PERK (Homo sapiens (Human), UniProt Q9NZJ5); assay: PERK cellular assay (TR-FRET, HEK293-EGFP-eIF2α cells, tunicamycin-induced ER stress); format: cell-based; conditions: tunicamycin 2 hours, read-out: Cellular IC50 (μM) (EIF2a)
Description: Stable cell lines were created in HEK293 cells using lentiviral particles harboring an expression vector for GFP-eIF2α. Cells were selected using puromycin and enriched using fluorescence activated cell sorting against GFP. HEK293-EGFP-eIF2α cells were plated at 5000 cells/well in 384-well assay plates and incubated overnight at 37° C., 5% CO2. Inhibitor compounds were added to the wells by Echo acoustic dispensing and incubated for 30 minutes at 37° C., 5% CO2 prior to induction of ER stress by addition of tunicamycin to […] for 2 hours. Cells were lysed and TR-FRET was measured in an EnVision plate reader (PerkinElmer). FRET ratio data was normalized to signal from lysates treated with DMSO vehicle control and plotted as percent inhibition against 10-point; 3-fold dilution series of inhibitors. IC50 values were calculated using 4-parameter logistical fitting in XLFit.

EIF2AK3 (PERK) catalytic domain (amino acids 536-1116), sequence (Q9NZJ5 536-1116): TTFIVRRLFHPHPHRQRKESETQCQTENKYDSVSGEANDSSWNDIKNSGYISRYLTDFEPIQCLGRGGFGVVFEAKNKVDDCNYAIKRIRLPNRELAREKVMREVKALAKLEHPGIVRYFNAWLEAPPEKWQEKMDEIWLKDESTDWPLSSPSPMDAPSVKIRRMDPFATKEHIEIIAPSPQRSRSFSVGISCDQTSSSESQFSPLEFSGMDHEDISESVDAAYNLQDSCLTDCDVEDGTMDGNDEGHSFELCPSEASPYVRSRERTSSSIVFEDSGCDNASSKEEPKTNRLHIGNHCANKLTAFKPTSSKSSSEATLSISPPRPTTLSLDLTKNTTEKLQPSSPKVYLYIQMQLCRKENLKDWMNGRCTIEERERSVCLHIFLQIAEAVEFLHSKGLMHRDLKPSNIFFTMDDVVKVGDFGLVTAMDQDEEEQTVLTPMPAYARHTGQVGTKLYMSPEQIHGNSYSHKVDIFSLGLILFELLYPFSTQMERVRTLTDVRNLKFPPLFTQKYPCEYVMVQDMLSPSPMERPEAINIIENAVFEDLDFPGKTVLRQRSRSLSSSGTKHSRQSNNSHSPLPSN
PERK, sequence (Q9NZJ5 30-1116): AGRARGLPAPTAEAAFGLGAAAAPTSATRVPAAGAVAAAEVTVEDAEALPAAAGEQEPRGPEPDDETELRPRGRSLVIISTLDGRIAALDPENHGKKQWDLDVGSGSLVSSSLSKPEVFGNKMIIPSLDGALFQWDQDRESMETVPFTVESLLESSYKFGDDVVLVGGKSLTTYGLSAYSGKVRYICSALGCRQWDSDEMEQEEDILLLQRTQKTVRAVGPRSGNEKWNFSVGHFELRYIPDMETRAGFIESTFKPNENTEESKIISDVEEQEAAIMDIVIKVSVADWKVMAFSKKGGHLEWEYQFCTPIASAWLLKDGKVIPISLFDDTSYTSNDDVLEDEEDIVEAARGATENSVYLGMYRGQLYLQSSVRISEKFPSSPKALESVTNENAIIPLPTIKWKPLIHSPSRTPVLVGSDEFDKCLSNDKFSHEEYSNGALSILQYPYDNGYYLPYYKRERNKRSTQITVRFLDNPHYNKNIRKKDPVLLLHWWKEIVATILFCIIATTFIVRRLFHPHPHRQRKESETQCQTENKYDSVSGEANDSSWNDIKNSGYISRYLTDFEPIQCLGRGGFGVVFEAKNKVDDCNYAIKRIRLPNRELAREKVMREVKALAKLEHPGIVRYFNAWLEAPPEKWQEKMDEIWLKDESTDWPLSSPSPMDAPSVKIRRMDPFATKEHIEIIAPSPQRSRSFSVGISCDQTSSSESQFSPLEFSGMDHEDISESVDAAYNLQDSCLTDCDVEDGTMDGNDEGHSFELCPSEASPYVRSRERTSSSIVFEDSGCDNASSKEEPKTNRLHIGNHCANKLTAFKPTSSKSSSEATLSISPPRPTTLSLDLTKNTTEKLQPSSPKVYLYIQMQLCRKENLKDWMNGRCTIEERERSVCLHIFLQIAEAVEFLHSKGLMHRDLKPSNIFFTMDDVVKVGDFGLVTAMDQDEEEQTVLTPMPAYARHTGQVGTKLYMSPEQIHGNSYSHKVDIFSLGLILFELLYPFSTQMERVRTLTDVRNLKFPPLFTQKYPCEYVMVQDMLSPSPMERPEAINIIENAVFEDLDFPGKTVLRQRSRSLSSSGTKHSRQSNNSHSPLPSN

| IC50 [1] [nM] | IC50 (PERK) [µM] | Compound |
| --- | --- | --- |
| 101 to 250 | 0.101 to 0.25 | CCc1cc(NC(=O)C(O)c2cc(F)cc(F)c2)ccc1-c1cnc(N)c(C(=O)NCC(F)(F)F)n1 (single isomer, unassigned) [Example 155, 3-amino-6-(4-(2-(3,5-difluorophenyl)-2-hydroxyacetamido)-2-ethylphenyl)-N-(2,2,2-trifluoroethyl) pyrazine-2-carboxamide] |
| 101 to 250 | 2 to 3 | Cc1cc(NC(=O)C(C)(O)c2ccccc2)ccc1-c1cnc(N)c(C(=O)NC(C)C)c1 (stereo not drawn) [Example 3, 2-amino-5-(4-(2-hydroxy-2-phenylpropanamido)-2-methylphenyl)-N-isopropylnicotinamide] |
| 101 to 250 | 3 to 4 | Cc1cc(NC(=O)C(C)(O)c2ccccc2)ccc1-c1cnc(N)c(C(=O)NC(C)C)c1 (stereo not drawn) [Example 4, 2-amino-5-(4-(2-hydroxy-2-phenylpropanamido)-2-methylphenyl)-N-isopropylnicotinamide] |
| 1000 to 2000 | 3 to 4 | COC(C(=O)Nc1ccc(-c2cnc(N)c(C(=O)NC(C)C)c2)c(C)c1)c1ccccc1 (stereo not drawn) [Example 5, 2-amino-N-isopropyl-5-(4-(2-methoxy-2-phenylacetamido)-2-methylphenyl) nicotinamide] |
| 1000 to 2000 | 3 to 4 | Cc1cc(NC(=O)C(N)c2ccccc2)ccc1-c1cnc(N)c(C(=O)NC(C)C)c1 (stereo not drawn) [Example 6, 2-amino-5-(4-(2-amino-2-phenylacetamido)-2-methylphenyl)-N-isopropyl-nicotinamide] |
| 1000 to 2000 | > 5 | Cc1cc(NC(=O)C(N)c2ccccc2)ccc1-c1cnc(N)c(C(=O)NC(C)C)c1 (stereo not drawn) [Example 7, 2-amino-5-(4-(2-amino-2-phenylacetamido)-2-methylphenyl)-N-isopropylnicotinamide] |
| 1 to 25 | 0.026 to 0.05 | Cc1cc(NC(=O)C(O)c2cc(F)cc(F)c2)ccc1-c1cnc(N)c(C(=O)NC(C)C)c1 (stereo not drawn) [Example 8, 2-amino-5-(4-(2-(3,5-difluorophenyl)-2-hydroxyacetamido)-2-methylphenyl)-N-isopropyl nicotinamide] |
| 26 to 50 | 0.101 to 0.25 | Cc1cc(NC(=O)C(O)c2cc(F)cc(F)c2)ccc1-c1cnc(N)c(C(=O)NC(C)C)c1 (stereo not drawn) [Example 9, 2-amino-5-(4-(2-(3,5-difluorophenyl)-2-hydroxyacetamido)-2-methylphenyl)-N-isopropyl nicotinamide] |
| 1 to 25 | 0.026 to 0.05 | Cc1cc(NC(=O)[C@H](O)c2cc(F)cc(F)c2)ccc1-c1cnc(N)c(C(=O)NC2CC2)c1 [Example 14, (R)-2-amino-N-cyclopropyl-5-(4-(2-(3,5-difluorophenyl)-2-hydroxyacetamido)-2-methylphenyl)nicotinamide] |
| 26 to 50 | 0.251 to 0.5 | Cc1cc(NC(=O)C(O)c2cc(F)cc(F)c2)ccc1-c1cnc(N)c(C(=O)NC2CC2)c1 (stereo not drawn) [Example 15, 2-amino-N-cyclopropyl-5-(4-(2-(3,5-difluorophenyl)-2-hydroxyacetamido)-2-methylphenyl) nicotinamide] |
| 1 to 25 | 0.026 to 0.05 | Cc1cc(NC(=O)C(O)c2cc(F)cc(F)c2)ccc1-c1cnc(N)c(C(=O)NCC(C)C)c1 (stereo not drawn) [Example 20, 2-amino-5-(4-(2-(3,5-difluorophenyl)-2-hydroxyacetamido)-2-methylphenyl)-N-isobutylnicotinamide] |
| 101 to 250 | 0.251 to 0.5 | Cc1cc(NC(=O)C(O)c2cc(F)cc(F)c2)ccc1-c1cnc(N)c(C(=O)NCC(C)C)c1 (stereo not drawn) [Example 21, 2-amino-5-(4-(2-(3,5-difluorophenyl)-2-hydroxyacetamido)-2-methylphenyl)-N-isobutylnicotinamide] |
| 501 to 1000 | 2 to 3 | Cc1cc(NC(=O)C(O)c2cc(F)cc(F)c2)ccc1-c1cnc(N)c(C(=O)N(C)C)c1 (stereo not drawn) [Example 22, 2-amino-5-(4-(2-(3,5-difluorophenyl)-2-hydroxyacetamido)-2-methylphenyl)-N,N-dimethylnicotinamide] |
| > 5000 | > 5 | Cc1cc(NC(=O)C(O)c2cc(F)cc(F)c2)ccc1-c1cnc(N)c(C(=O)N(C)C)c1 (stereo not drawn) [Example 23, 2-amino-5-(4-(2-(3,5-difluorophenyl)-2-hydroxyacetamido)-2-methylphenyl)-N,N-dimethylnicotinamide] |
| 1 to 25 | 0.051 to 0.1 | Cc1cc(NC(=O)C(O)c2cc(F)cc(F)c2)ccc1-c1cnc(N)c(C(=O)NC2COC2)c1 (stereo not drawn) [Example 24, 2-amino-5-(4-(2-(3,5-difluorophenyl)-2-hydroxyacetamido)-2-methylphenyl)-N-(oxetan-3-yl)nicotinamide] |
| 26 to 50 | 0.501 to 1 | Cc1cc(NC(=O)C(O)c2cc(F)cc(F)c2)ccc1-c1cnc(N)c(C(=O)NC2COC2)c1 (stereo not drawn) [Example 25, 2-amino-5-(4-(2-(3,5-difluorophenyl)-2-hydroxyacetamido)-2-methylphenyl)-N-(oxetan-3-yl)nicotinamide] |
| 1 to 25 | 0.101 to 0.25 | Cc1cc(NC(=O)C(O)c2cc(F)cc(F)c2)ccc1-c1cnc(N)c(C(=O)NC2CC(O)C2)c1 (stereo not drawn) [Example 26, 2-amino-5-(4-(2-(3,5-difluorophenyl)-2-hydroxyacetamido)-2-methylphenyl)-N-(3-hydroxycyclobutyl) nicotinamide] |
| 51 to 100 | 1 to 2 | Cc1cc(NC(=O)C(O)c2cc(F)cc(F)c2)ccc1-c1cnc(N)c(C(=O)NC2CC(O)C2)c1 (stereo not drawn) [Example 27, 2-amino-5-(4-(2-(3,5-difluorophenyl)-2-hydroxyacetamido)-2-methylphenyl)-N-(3-hydroxycyclobutyl) nicotinamide] |
| 1 to 25 | 0.026 to 0.05 | COC1CC(NC(=O)c2cc(-c3ccc(NC(=O)C(O)c4cc(F)cc(F)c4)cc3C)cnc2N)C1 (stereo not drawn) [Example 28, 2-amino-5-(4-(2-(3,5-difluorophenyl)-2-hydroxyacetamido)-2-methylphenyl)-N-(3-methoxycyclobutyl) nicotinamide] |
| 26 to 50 | 0.251 to 0.5 | COC1CC(NC(=O)c2cc(-c3ccc(NC(=O)C(O)c4cc(F)cc(F)c4)cc3C)cnc2N)C1 (stereo not drawn) [Example 29, 2-amino-5-(4-(2-(3,5-difluorophenyl)-2-hydroxyacetamido)-2-methylphenyl)-N-(3-methoxycyclobutyl) nicotinamide] |
| 1 to 25 | 0.501 to 1 | CC(=O)N1CC(NC(=O)c2cc(-c3ccc(NC(=O)C(O)c4cc(F)cc(F)c4)cc3C)cnc2N)C1 (stereo not drawn) [Example 30, N-(1-acetylazetidin-3-yl)-2-amino-5-(4-(2-(3,5-difluorophenyl)-2-hydroxyacetamido)-2-methylphenyl) nicotinamide] |
| 51 to 100 | 3 to 4 | CC(=O)N1CC(NC(=O)c2cc(-c3ccc(NC(=O)C(O)c4cc(F)cc(F)c4)cc3C)cnc2N)C1 (stereo not drawn) [Example 31, N-(1-acetylazetidin-3-yl)-2-amino-5-(4-(2-(3,5-difluorophenyl)-2-hydroxyacetamido)-2-methylphenyl) nicotinamide] |
| 1 to 25 | 0.051 to 0.1 | CC(C)NC(=O)c1cc(-c2ccc(NC(=O)C(O)c3cc(F)cc(F)c3)cc2F)cnc1N (stereo not drawn) [Example 32, 2-amino-5-(4-(2-(3,5-difluorophenyl)-2-hydroxyacetamido)-2-fluorophenyl)-N-isopropylnicotinamide] |
| 101 to 250 | 0.251 to 0.5 | CC(C)NC(=O)c1cc(-c2ccc(NC(=O)C(O)c3cc(F)cc(F)c3)cc2F)cnc1N (stereo not drawn) [Example 33, 2-amino-5-(4-(2-(3,5-difluorophenyl)-2-hydroxyacetamido)-2-fluorophenyl)-N-isopropylnicotinamide] |
| 1 to 25 | 0.051 to 0.1 | CC(C)NC(=O)c1cc(-c2ccc(NC(=O)C(O)c3cc(F)cc(F)c3)cc2C(F)(F)F)cnc1N (stereo not drawn) [Example 36, 2-amino-5-(4-(2-(3,5-difluorophenyl)-2-hydroxyacetamido)-2-(trifluoromethyl)phenyl)-N-isopropylnicotinamide] |
| 101 to 250 | 0.251 to 0.5 | CC(C)NC(=O)c1cc(-c2ccc(NC(=O)C(O)c3cc(F)cc(F)c3)cc2C(F)(F)F)cnc1N (stereo not drawn) [Example 37, 2-amino-5-(4-(2-(3,5-difluorophenyl)-2-hydroxyacetamido)-2-(trifluoromethyl)phenyl)-N-isopropylnicotinamide] |
| 1 to 25 | 0.026 to 0.05 | Cc1cc(NC(=O)C(O)c2cc(F)cc(F)c2)ccc1-c1cnc(N)c(C(=O)NC(C)C)c1 (stereo not drawn) [Example 40, 2-amino-5-(4-(2-(3,5-difluorophenyl)-2-hydroxyacetamido)-2-methylphenyl)-N-isopropylnicotinamide] |
